{
  "source": "the supplement of paper PMC10307832",
  "assay_in_all_cases": "relative viability (nuclei count vs DMSO), 5 days (fraction); higher = more cells survive",
  "key": {"[1]": {"tested_on": "NCI-H1944", "summary_of_the_method": "(§1)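 Cells from lung cancer lines were seeded into 1536-well plates and, one day later, dosed by pin tool. Treatments were either a single drug or a fixed dose of an anchor drug with five library-drug doses (not always all listed) in √10 steps. After 5 days, nuclei were stained in a one-step fixation (final 0.05% Triton X-100, 1% formaldehyde, 1 ug/ml Hoechst) and counted on 4× images, and relative viability is the treated-to-vehicle nuclei ratio, as the median of duplicate plates.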"}, "[2]": {"tested_on": "NCI-H2023", "summary_of_the_method": "as §1"}, "[3]": {"tested_on": "NCI-H2087", "summary_of_the_method": "as §1"}, "[4]": {"tested_on": "NCI-H441", "summary_of_the_method": "as §1"}, "[5]": {"tested_on": "NCI-H460", "summary_of_the_method": "as §1"}, "[6]": {"tested_on": "NCI-H520", "summary_of_the_method": "as §1"}, "[7]": {"tested_on": "NCI-H596", "summary_of_the_method": "as §1"}, "[8]": {"tested_on": "NCI-H650", "summary_of_the_method": "as §1"}, "[9]": {"tested_on": "NCI-H661", "summary_of_the_method": "as §1"}, "[10]": {"tested_on": "NCI-H727", "summary_of_the_method": "as §1"}, "[11]": {"tested_on": "PC-3 [JPC-3]", "summary_of_the_method": "as §1"}},
  "data": [
    {"smiles": "Nc1ccn([C@@H]2O[C@H](CO)[C@@H](O)[C@@H]2O)c(=O)n1", "note": "[Cytarabine] + CS(=O)(=O)N1CCN(Cc2cc3nc(-c4cccc5[nH]ncc45)nc(N4CCOCC4)c3s2)CC1 [Pictilisib] (partner 1 µM)", "values": [
      {"measurement": "relative viability", "setting": "[1]; first compound 0.005 µM", "value": 0.29},
      {"measurement": "relative viability", "setting": "[1]; first compound 0.01581 µM", "value": 0.267},
      {"measurement": "relative viability", "setting": "[1]; first compound 0.05 µM", "value": 0.236},
      {"measurement": "relative viability", "setting": "[1]; first compound 0.1581 µM", "value": 0.201},
      {"measurement": "relative viability", "setting": "[1]; first compound 0.5 µM", "value": 0.189},
      {"measurement": "relative viability", "setting": "[2]; first compound 0.005 µM", "value": 0.193},
      {"measurement": "relative viability", "setting": "[2]; first compound 0.01581 µM", "value": 0.137},
      {"measurement": "relative viability", "setting": "[2]; first compound 0.05 µM", "value": 0.112},
      {"measurement": "relative viability", "setting": "[2]; first compound 0.1581 µM", "value": 0.0708},
      {"measurement": "relative viability", "setting": "[2]; first compound 0.5 µM", "value": 0.0698},
      {"measurement": "relative viability", "setting": "[3]; first compound 0.005 µM", "value": 0.804},
      {"measurement": "relative viability", "setting": "[3]; first compound 0.01581 µM", "value": 0.751},
      {"measurement": "relative viability", "setting": "[3]; first compound 0.05 µM", "value": 0.805},
      {"measurement": "relative viability", "setting": "[3]; first compound 0.1581 µM", "value": 0.461},
      {"measurement": "relative viability", "setting": "[3]; first compound 0.5 µM", "value": 0.355},
      {"measurement": "relative viability", "setting": "[4]; first compound 0.005 µM", "value": 0.481},
      {"measurement": "relative viability", "setting": "[4]; first compound 0.01581 µM", "value": 0.443},
      {"measurement": "relative viability", "setting": "[4]; first compound 0.05 µM", "value": 0.411},
      {"measurement": "relative viability", "setting": "[4]; first compound 0.1581 µM", "value": 0.205},
      {"measurement": "relative viability", "setting": "[4]; first compound 0.5 µM", "value": 0.223},
      {"measurement": "relative viability", "setting": "[5]; first compound 0.005 µM", "value": 0.328},
      {"measurement": "relative viability", "setting": "[5]; first compound 0.01581 µM", "value": 0.322},
      {"measurement": "relative viability", "setting": "[5]; first compound 0.05 µM", "value": 0.226},
      {"measurement": "relative viability", "setting": "[5]; first compound 0.1581 µM", "value": 0.106},
      {"measurement": "relative viability", "setting": "[5]; first compound 0.5 µM", "value": 0.0854},
      {"measurement": "relative viability", "setting": "[6]; first compound 0.005 µM", "value": 0.228},
      {"measurement": "relative viability", "setting": "[6]; first compound 0.01581 µM", "value": 0.276},
      {"measurement": "relative viability", "setting": "[6]; first compound 0.05 µM", "value": 0.288},
      {"measurement": "relative viability", "setting": "[6]; first compound 0.1581 µM", "value": 0.27},
      {"measurement": "relative viability", "setting": "[6]; first compound 0.5 µM", "value": 0.309},
      {"measurement": "relative viability", "setting": "[7]; first compound 0.005 µM", "value": 0.432},
      {"measurement": "relative viability", "setting": "[7]; first compound 0.01581 µM", "value": 0.396},
      {"measurement": "relative viability", "setting": "[7]; first compound 0.05 µM", "value": 0.355},
      {"measurement": "relative viability", "setting": "[7]; first compound 0.1581 µM", "value": 0.277},
      {"measurement": "relative viability", "setting": "[7]; first compound 0.5 µM", "value": 0.315},
      {"measurement": "relative viability", "setting": "[8]; first compound 0.005 µM", "value": 0.831},
      {"measurement": "relative viability", "setting": "[8]; first compound 0.01581 µM", "value": 0.688},
      {"measurement": "relative viability", "setting": "[8]; first compound 0.05 µM", "value": 0.419},
      {"measurement": "relative viability", "setting": "[8]; first compound 0.1581 µM", "value": 0.224},
      {"measurement": "relative viability", "setting": "[8]; first compound 0.5 µM", "value": 0.214},
      {"measurement": "relative viability", "setting": "[9]; first compound 0.005 µM", "value": 0.411},
      {"measurement": "relative viability", "setting": "[9]; first compound 0.01581 µM", "value": 0.323},
      {"measurement": "relative viability", "setting": "[9]; first compound 0.05 µM", "value": 0.217},
      {"measurement": "relative viability", "setting": "[9]; first compound 0.1581 µM", "value": 0.284},
      {"measurement": "relative viability", "setting": "[9]; first compound 0.5 µM", "value": 0.222},
      {"measurement": "relative viability", "setting": "[10]; first compound 0.005 µM", "value": 0.45},
      {"measurement": "relative viability", "setting": "[10]; first compound 0.01581 µM", "value": 0.237},
      {"measurement": "relative viability", "setting": "[10]; first compound 0.05 µM", "value": 0.211},
      {"measurement": "relative viability", "setting": "[10]; first compound 0.1581 µM", "value": 0.222},
      {"measurement": "relative viability", "setting": "[10]; first compound 0.5 µM", "value": 0.203},
      {"measurement": "relative viability", "setting": "[11]; first compound 0.005 µM", "value": 0.695},
      {"measurement": "relative viability", "setting": "[11]; first compound 0.01581 µM", "value": 0.673},
      {"measurement": "relative viability", "setting": "[11]; first compound 0.05 µM", "value": 0.647},
      {"measurement": "relative viability", "setting": "[11]; first compound 0.1581 µM", "value": 0.448},
      {"measurement": "relative viability", "setting": "[11]; first compound 0.5 µM", "value": 0.479}
    ]}
  ]
}
